This note sets out measurements from patent US7795290B2 (Genentech, Inc., priority 2004, dated 2010).

For assay [1], the target named is CHEK2 (Homo sapiens, UniProt O96017). Briefly: HTS ATP-utilizing enzyme assay, off-chip mobility-shift (Caliper HTS 250). In kind it is biochemical. To be noted: kinase named = inhibitory activity/selectivity; test compound 10 μM; active = greater than three-sigma from mean. In a few lines: (§1)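 Single-point screen at 10 µM compound: kinase reactions ran 2.5 h at 20–22 °C and were stopped with termination buffer. Inhibition was read as the substrate-to-phosphopeptide ratio by microfluidic mobility shift, with EDTA and DMSO wells as controls. Hits were called by three-sigma limits.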
Chain of CHEK2 (O96017 whole entry): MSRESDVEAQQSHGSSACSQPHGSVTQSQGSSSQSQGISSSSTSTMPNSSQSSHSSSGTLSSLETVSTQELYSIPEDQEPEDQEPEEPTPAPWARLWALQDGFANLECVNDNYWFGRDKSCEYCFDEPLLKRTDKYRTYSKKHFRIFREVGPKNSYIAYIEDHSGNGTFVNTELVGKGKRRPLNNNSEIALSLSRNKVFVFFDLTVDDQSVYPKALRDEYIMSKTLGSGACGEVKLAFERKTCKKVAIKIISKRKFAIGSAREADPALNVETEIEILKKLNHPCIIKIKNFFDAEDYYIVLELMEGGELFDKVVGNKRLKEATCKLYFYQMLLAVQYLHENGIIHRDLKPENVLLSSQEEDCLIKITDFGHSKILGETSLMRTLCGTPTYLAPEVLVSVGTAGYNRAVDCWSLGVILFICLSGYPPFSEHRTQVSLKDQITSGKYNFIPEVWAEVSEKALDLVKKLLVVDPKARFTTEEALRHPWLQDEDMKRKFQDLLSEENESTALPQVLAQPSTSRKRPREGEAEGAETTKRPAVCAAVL

For assay [2], the target named is T1, CASPASE-7 (Homo sapiens, UniProt P55210).
T1 sequence (P55210 24-198 limits assumed): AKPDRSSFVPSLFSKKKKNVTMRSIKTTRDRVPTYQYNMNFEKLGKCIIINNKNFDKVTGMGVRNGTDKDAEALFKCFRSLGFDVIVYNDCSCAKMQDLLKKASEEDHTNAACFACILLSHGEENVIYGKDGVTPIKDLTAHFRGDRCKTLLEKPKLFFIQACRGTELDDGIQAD
T1 sequence (P55210 207-303 limits assumed): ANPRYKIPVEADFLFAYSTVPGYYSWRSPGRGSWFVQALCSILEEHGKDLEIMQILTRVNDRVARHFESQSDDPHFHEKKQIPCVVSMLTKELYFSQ
The description is as above. In kind it is biochemical. As to conditions: enzyme named = inhibitory activity/selectivity; test compound 10 μM; active = greater than three-sigma from mean. The method, boiled down:
as §1

Turning to `COc1ccc(OC)c(-c2csc(N(CCCN(C)C)C(=O)c3ccccc3)n2)c1` [N-(4-(2,5-dimethoxyphenyl)thiazol-2-yl)-N-(3-(dimethylamino)propyl)benzamide], the Activity entry in assay [1] was “CHEK2”; in assay [2], “CASPASE-7”.
